± gives the expanded uncertainty stated by the source.
Experiment: molar heat capacity at saturation pressure
Conditions: Small (less than 1 g) adiabatic calorimetry

CCCCn1cc[n+](C)c1.F[P-](F)(F)(F)(F)F [1-butyl-3-methylimidazolium hexafluorophosphate]
molar heat capacity [J/K/mol]
Conditions | Crystal | Glass
5 K | 1.007 ± 0.046 | 1.946 ± 0.066
5.09 K | – | 2.049 ± 0.05
5.13 K | 1.065 ± 0.033 | –
5.36 K | – | 2.336 ± 0.054
5.41 K | 1.231 ± 0.036 | –
5.59 K | – | 2.627 ± 0.058
5.67 K | 1.405 ± 0.038 | –
5.85 K | – | 2.997 ± 0.062
5.97 K | 1.625 ± 0.042 | –
6.14 K | – | 3.411 ± 0.069
6.29 K | 1.927 ± 0.046 | –
6.47 K | – | 3.839 ± 0.074
6.6 K | 2.264 ± 0.051 | –
6.82 K | – | 4.454 ± 0.081
6.91 K | 2.566 ± 0.055 | –
7.15 K | – | 4.943 ± 0.089
7.23 K | 2.994 ± 0.06 | –
7.49 K | – | 5.596 ± 0.096
7.58 K | 3.435 ± 0.066 | –
7.84 K | – | 6.275 ± 0.1
7.92 K | 3.848 ± 0.072 | –
8.21 K | – | 6.958 ± 0.11
8.28 K | 4.395 ± 0.079 | –
8.61 K | – | 7.772 ± 0.12
8.66 K | 4.99 ± 0.086 | –
9 K | – | 8.63 ± 0.13
9.07 K | 5.739 ± 0.096 | –
9.41 K | – | 9.587 ± 0.14
9.49 K | 6.479 ± 0.1 | –
9.82 K | – | 10.46 ± 0.15
9.92 K | 7.352 ± 0.11 | –
10 K | 7.487 ± 0.14 | 10.93 ± 0.2
10.27 K | – | 11.64 ± 0.17
10.35 K | 8.195 ± 0.12 | –
10.75 K | 9.005 ± 0.13 | –
10.76 K | – | 12.74 ± 0.17
11.18 K | 10.04 ± 0.14 | –
11.23 K | – | 14.01 ± 0.19
11.74 K | 11.29 ± 0.16 | 15.2 ± 0.2
12.29 K | – | 16.65 ± 0.22
12.32 K | 12.57 ± 0.17 | –
12.81 K | – | 18.03 ± 0.23
12.92 K | 14.08 ± 0.18 | –
13.36 K | – | 19.55 ± 0.24
13.56 K | 15.72 ± 0.2 | –
13.99 K | – | 21.2 ± 0.26
14.2 K | 17.26 ± 0.22 | –
14.65 K | – | 23.01 ± 0.27
14.85 K | 19.06 ± 0.23 | –
15 K | 19.41 ± 0.3 | 23.95 ± 0.36
15.35 K | – | 24.94 ± 0.29
15.51 K | 20.76 ± 0.24 | –
16.07 K | – | 26.85 ± 0.3
16.24 K | 22.77 ± 0.26 | –
16.81 K | – | 28.88 ± 0.32
17 K | 24.84 ± 0.27 | –
17.63 K | – | 31.14 ± 0.33
17.78 K | 26.97 ± 0.29 | –
18.5 K | – | 33.53 ± 0.35
18.66 K | 29.5 ± 0.31 | –
19.36 K | – | 35.93 ± 0.36
19.54 K | 32.1 ± 0.32 | –
20 K | 33.34 ± 0.42 | 37.71 ± 0.47
20.17 K | – | 38.13 ± 0.37
20.45 K | 34.73 ± 0.34 | –
21.05 K | – | 40.62 ± 0.39
21.38 K | 37.23 ± 0.35 | –
22.07 K | – | 43.51 ± 0.4
22.32 K | 39.8 ± 0.37 | –
23.08 K | – | 46.05 ± 0.42
23.31 K | 42.57 ± 0.38 | –
24.15 K | – | 49.07 ± 0.42
24.37 K | 45.56 ± 0.39 | –
25 K | 47.15 ± 0.49 | 51.23 ± 0.53
25.25 K | – | 51.82 ± 0.43
25.51 K | 48.5 ± 0.41 | –
26.28 K | – | 54.6 ± 0.44
26.64 K | 51.23 ± 0.41 | –
27.38 K | – | 57.25 ± 0.45
27.83 K | 54.25 ± 0.42 | –
28.63 K | – | 60.1 ± 0.45
29.06 K | 57.36 ± 0.42 | –
29.99 K | – | 63.37 ± 0.46
30 K | 59.6 ± 0.4 | 63.41 ± 0.42
30.21 K | 60.16 ± 0.37 | –
31.43 K | – | 66.52 ± 0.41
31.51 K | 63.15 ± 0.39 | –
32.95 K | – | 70.07 ± 0.42
32.97 K | 66.37 ± 0.41 | –
34.47 K | 69.5 ± 0.42 | –
34.52 K | – | 73.45 ± 0.44
35 K | 70.66 ± 0.46 | 74.31 ± 0.47
36.07 K | 72.74 ± 0.44 | –
36.17 K | – | 76.76 ± 0.46
37.71 K | 76.12 ± 0.46 | –
37.88 K | – | 79.79 ± 0.47
39.38 K | 79.31 ± 0.47 | –
39.66 K | – | 83.48 ± 0.5
40 K | 80.48 ± 0.51 | 83.89 ± 0.5
41.07 K | 82.46 ± 0.49 | –
41.55 K | – | 86.89 ± 0.5
42.76 K | 85.47 ± 0.5 | –
43.54 K | – | 90.3 ± 0.5
44.47 K | 88.38 ± 0.5 | –
45 K | 89.21 ± 0.58 | 92.46 ± 0.58
45.53 K | – | 93.29 ± 0.58
46.22 K | 91.38 ± 0.5 | –
47.48 K | – | 96.53 ± 0.58
48 K | 93.87 ± 0.58 | –
49.44 K | – | 99.69 ± 0.58
49.81 K | 96.36 ± 0.58 | –
50 K | 96.95 ± 0.58 | 100.6 ± 0.58
51.38 K | – | 102.7 ± 0.58
51.62 K | 99.36 ± 0.58 | –
53.34 K | – | 105.7 ± 0.58
53.48 K | 101.9 ± 0.58 | –
55.43 K | – | 108.8 ± 0.67
55.49 K | 104.4 ± 0.58 | –
57.6 K | – | 111.9 ± 0.67
57.62 K | 106.9 ± 0.58 | –
59.71 K | 109.9 ± 0.67 | –
59.75 K | – | 114.9 ± 0.67
60 K | 110.2 ± 0.67 | 115.6 ± 0.67
61.89 K | 112.3 ± 0.67 | 117.8 ± 0.67
64.01 K | – | 121.6 ± 0.67
64.13 K | 115.1 ± 0.67 | –
66.11 K | – | 123.9 ± 0.75
66.36 K | 118.1 ± 0.67 | –
68.19 K | – | 127.2 ± 0.75
68.68 K | 120.7 ± 0.67 | –
70 K | 122 ± 0.75 | 129.2 ± 0.75
70.41 K | – | 130 ± 0.75
71.13 K | 123.1 ± 0.75 | –
72.69 K | – | 132.8 ± 0.75
73.64 K | 125.8 ± 0.75 | –
75.03 K | – | 135.6 ± 0.75
76.05 K | 128.6 ± 0.75 | –
77.42 K | – | 138.4 ± 0.75
78.39 K | 130.8 ± 0.75 | –
79.89 K | – | 142.1 ± 0.83
80 K | 132.7 ± 0.75 | 141.8 ± 0.83
80.75 K | 133.5 ± 0.75 | –
82.45 K | – | 144.5 ± 0.83
83.19 K | 136 ± 0.75 | –
84.93 K | – | 147.7 ± 0.83
85.74 K | 138.7 ± 0.83 | –
87.39 K | – | 150.3 ± 0.83
88.31 K | 141.4 ± 0.83 | –
89.83 K | – | 153.7 ± 0.83
90 K | 142.9 ± 0.75 | 154.1 ± 0.83
90.82 K | 143.8 ± 0.83 | –
92.25 K | – | 157.1 ± 0.83
93.26 K | 146.3 ± 0.83 | –
95.42 K | – | 160.5 ± 0.92
95.87 K | 149.1 ± 0.83 | –
97.92 K | – | 163.5 ± 0.92
98.65 K | 151.7 ± 0.83 | –
100 K | 153.2 ± 0.83 | 166 ± 0.83
100.28 K | 153.6 ± 0.83 | –
100.38 K | – | 166.5 ± 0.92
100.78 K | – | 167.5 ± 0.92
101.35 K | 154.9 ± 0.83 | –
102.77 K | 156.1 ± 0.83 | –
103.17 K | – | 170 ± 0.92
105.21 K | 158.5 ± 0.83 | –
105.51 K | – | 172.9 ± 0.92
107.6 K | 160.8 ± 0.92 | –
107.81 K | – | 175.4 ± 0.92
110 K | 163.1 ± 0.83 | 177.9 ± 0.92
110.06 K | – | 177.9 ± 1

From the NIST ThermoML archive (doi:10.1021/je034102r)
